Reference: patent US5641485A, “Caledothricins used in the treatment mycotic diseases” (Hoffmann-La Roche Inc., priority 1994, dated 1997)
In brackets after ≈: the same amount, converted by molar mass. Read-outs that look alike come from different tables or passages of the source.

What was measured:
Cryptococcus neoformans = assay: microbe, parasite or virus in culture
Protocol: (§1) MIC is defined as the minimal concentration of test compound at which no visible growth is detected. Culture media employed for measuring MICs were yeast nitrogen base (Difco) supplemented with 1% of glucose, 0.2% of low melting point agarose and 0.25% of K2 HPO4 (pH 7.0). The low melting point agarose was omitted when antifungal activity against Candida albicans and Cryptococcus neoformans was measured. The culture media were inoculated with fungal cells at the final concentration of 10,000 cfu/ml. Plates were incubated for 1-12 days at 27° C.

Aspergillus fumigatus [1] = conditions: pH 7.0, 27° C., 10,000 cfu/ml, 0.2% low melting point agarose
Protocol: as §1

Absidia corymbifera = assay: In vitro antifungal activity (MIC) against Absidia corymbifera; type: cell-based; conditions: Lichtheimia corymbifera; strain IFO8084; pH 7.0, 27° C., 10,000 cfu/ml, 0.2% low melting point agarose
Protocol: as §1

Trichosporon beigelii = assay: In vitro antifungal activity (MIC) against Trichosporon beigelii; type: cell-based; conditions: ATCC28592, strain ATCC 28592, pH 7.0, 27° C., 10,000 cfu/ml, 0.2% low melting point agarose
Protocol: as §1

Aspergillus fumigatus [2] = assay: microbe, parasite or virus in culture; conditions: pH 7
Protocol: as §1

[3] = test system: Trichophyton mentagrophytes; assay: In vitro antifungal activity (MIC) against Trichophyton mentagrophytes; type: cell-based; conditions: strain CF1007, pH 7.0, 27° C., 10,000 cfu/ml, 0.2% low melting point agarose
Protocol: as §1

Candida albicans = assay: microbe, parasite or virus in culture
Protocol: as §1

OC(Cn1cncn1)(Cn1cncn1)c1ccc(F)cc1F [FCZ, fluconazole]
MIC (Cryptococcus neoformans; pH 7, strain 422, pH 7.0, 27° C., 10,000 cfu/ml): > 200 µg/mL | MIC (Cryptococcus neoformans; pH 7, strain MTU13001, pH 7.0, 27° C., 10,000 cfu/ml): 12.5 µg/mL (≈ 40.8 µM) | MIC (Aspergillus fumigatus [1]; strain 437): > 200 µg/mL | MIC (Aspergillus fumigatus [1]; strain CF1004): > 200 µg/mL | MIC (Absidia corymbifera): > 200 µg/mL | MIC (Trichosporon beigelii): 0.39 µg/mL (≈ 1.27 µM) | MIC (Aspergillus fumigatus [2]): > 200 µg/mL | MIC [3]: > 200 µg/mL | MIC (Candida albicans; ATCC48130, pH 7, strain ATCC48130, pH 7.0, 27° C., 10,000 cfu/ml): > 200 µg/mL | MIC (Candida albicans; pH 7, strain 652, pH 7.0, 27° C., 10,000 cfu/ml): > 200 µg/mL | MIC (Candida albicans; pH 7, strain AD, pH 7.0, 27° C., 10,000 cfu/ml): 200 µg/mL (≈ 653 µM) | MIC (Candida albicans; pH 7, strain C42, pH 7.0, 27° C., 10,000 cfu/ml): > 200 µg/mL | MIC (Candida albicans; pH 7, strain KB, pH 7.0, 27° C., 10,000 cfu/ml): > 200 µg/mL
